The results in this text go back to PubChem BioAssay (NCI).

Experiment in all cases: NCI-60 cell line screen, 48 h
Assay [1] relates to RXF 393 renal.
In assay [2] the test system is HS 578T breast.
For assay [3], the system named is PC-3 prostate.
The test system of assay [4] is MDA-MB-231 breast.
For assay [5], the system named is BT-549 breast.
In assay [6] the test system is SW-620 colon.
Assay [7] relates to A549 NSCLC.
The subject of assay [8] is MCF7 breast.
The subject of assay [9] is UO-31 renal.
Assay [10] deals with SF-295 CNS.

SMILES strings stand for the structures.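 In this assay, cells in 96-well plates receive the compound at five concentrations for 48 hours. Endpoints are linearly interpolated between the surrounding concentrations. Here, GI50 denotes the concentration required for 50% inhibition of growth. TGI denotes the concentration required for complete inhibition of growth.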

For `NC(N)=N/N=C/c1c(-c2cccs2)nc2n1CCS2`, the GI50 is 77.7 µM in assay [1]; 18.8 µM in [2]; 19.7 µM in assay [3]; 13.7 µM in assay [4]; 21.4 µM in assay [5]; 17.9 µM in assay [6]. The GI50 in assay [7] was above 100 µM; in assay [8] it was 17.6 µM; in [9], 70.4 µM; in [10], 14 µM. Also, the TGI was above 100 µM in assay [1]; 77.4 µM in [2]; 36 µM in [3]; 33.4 µM in [4]; 44.8 µM in [5]; 41.7 µM in assay [6]. Further, the TGI in assay [7] was above 100 µM; in [8], 35.1 µM; in assay [9], above 100 µM; in [10] it was 30.6 µM.
Take `OC1CCSc2ccccc21` (stereo not given): the TGI in [1], in assay [6], in [7] and in assay [9] was above 100 µM each time.
With `CCOC(=O)c1cccc(N=Nc2ncc(/C=C/C(=O)OC)[nH]2)c1`, the TGI in assay [1], in [2], in assay [3], in assay [4], in assay [5] and in [6] was above 100 µM each time. Moreover, the TGI in assay [7] is above 100 µM; in [8], 86.2 µM; in assay [9] it was 72 µM; in [10] it was 63.2 µM.
Consider `C#C[C@]1(O)[C@@H](CO)O[C@@H](n2ccc(=O)[nH]c2=O)[C@@H]1O`, for which the TGI in assay [2] is above 23.5 µM; in assay [3], above 29.6 µM; in assay [4], 3.77 µM; in [6], above 100 µM; in assay [7], above 100 µM; in assay [8] it was above 100 µM. Besides, the values for the TGI in assay [9] and in [10] were 0.183 µM and above 45.2 µM, respectively.
For the molecule `CN(CCN1C(=O)c2cccc3cccc(c23)C1=O)CCN1C(=O)c2cccc3cccc(c23)C1=O`, the TGI in [1] was 76.9 µM; in [2], above 100 µM; in [3], above 100 µM; in assay [4], 33.6 µM; in [5], above 100 µM; in assay [7], above 100 µM. The TGI is above 100 µM in assay [8], 28.8 µM in [9] and 29 µM in assay [10].
In the case of `c1ccc(C[N+]23C(CC[C@H]2c2ccccc2)CC[C@H]3c2ccccc2)cc1` (stereo not given in full), the TGI in assay [1] was 57.2 µM; in assay [2] it was above 100 µM; in assay [3], above 100 µM; in [4] it was above 100 µM; in assay [6], above 100 µM; in [7], above 100 µM. The TGI in assay [8], in assay [9] and in [10] was above 100 µM each time.
Take `CC(CCCCNC(=O)OC(C)(C)C)NC(=O)NC(C)CCCCNC(=O)OC(C)(C)C` (stereo not given): the TGI in [1], in assay [2], in [3], in assay [4], in [5] and in assay [6] was above 100 µM throughout. The TGI in assay [7], in assay [8], in assay [9] and in [10] was above 100 µM each time.
In the case of `Fc1c(F)c(F)c(CSc2nc3ccccc3[nH]2)c(F)c1F`, the TGI in [1], in assay [2], in [3], in [4], in assay [5] and in [6] was above 100 µM throughout. The TGI in assay [7], in assay [8], in assay [9] and in assay [10] was above 100 µM in each case.
In the case of `Oc1ccc(Cl)cc1C1=Nn2c(COc3ccc4c(c3)CCCC4)nnc2SC1`, the TGI came to 32.9 µM in assay [1]; 30 µM in assay [2]; 26.7 µM in [3]; 34.2 µM in [4]; 34.6 µM in [5]; 33 µM in assay [6]. The TGI in assay [7] was determined as 92.9 µM; in assay [8], 32.5 µM; in assay [9], 23.4 µM; in assay [10], 29.7 µM.
For the molecule `COc1cc2cc[n+](C)c(Cc3ccc(Oc4cc(Cc5c6cc(OC)c(OC)cc6cc[n+]5C)ccc4OC)cc3)c2cc1OC`, the TGI in [1], in [2], in assay [3], in [4], in [5] and in assay [6] was above 100 µM in each case. In addition, the TGI in assay [7], in assay [8], in assay [9] and in assay [10] was above 100 µM in each case.
For `O=C(NN1CCCCC1)c1cc2cc(CCl)ccc2oc1=O`, the TGI in assay [1] was 34.4 µM; in assay [2], 36.4 µM; in [3] it was 30.4 µM; in assay [4] it was 38.6 µM; in [5], 38 µM; in assay [6], 60.7 µM. In addition, the TGI is 48.5 µM in assay [7], above 100 µM in assay [8], 35.3 µM in [9] and 42 µM in assay [10].
Regarding `CC(C)(C)COS(=O)OCC(C)(C)C`, the TGI in [1], in [2], in [3], in assay [4], in [5] and in assay [6] was above 100 µM throughout. In addition, the TGI in assay [7], in assay [8], in [9] and in [10] was above 100 µM throughout.
Consider `Cc1ccc(S(=O)(=O)Nc2cc(=O)[nH]c3c2CCC3)cc1`, for which the TGI in [1], in assay [2], in assay [3], in assay [4], in assay [5] and in assay [6] was above 100 µM throughout. Moreover, the TGI in assay [7], in assay [8], in assay [9] and in [10] was above 100 µM in each case.
